Test [1] has as its system Helicobacter pylori.
Description: Inhibition of Helicobacter pylori beta carbonic anhydrase by stopped-flow CO2 hydrase assay
Test [2] has as its system Helicobacter pylori. This is another data set of the same source.
Description: Inhibition of Helicobacter pylori alpha carbonic anhydrase by stopped-flow CO2 hydrase assay
Test [3] deals with Carbonic anhydrase 2 (Homo sapiens) (UniProt P00918).
Description: Inhibition of human carbonic anhydrase 2 by stopped-flow CO2 hydrase assay
In test [4] the target is Carbonic anhydrase 1 (Homo sapiens) (UniProt P00915).
Description: Inhibition of human carbonic anhydrase 1 by stopped-flow CO2 hydrase assay

Molecules are shown by their SMILES.

Sequence of Carbonic anhydrase 1 (Homo sapiens) (P00915 2-261 limits assumed): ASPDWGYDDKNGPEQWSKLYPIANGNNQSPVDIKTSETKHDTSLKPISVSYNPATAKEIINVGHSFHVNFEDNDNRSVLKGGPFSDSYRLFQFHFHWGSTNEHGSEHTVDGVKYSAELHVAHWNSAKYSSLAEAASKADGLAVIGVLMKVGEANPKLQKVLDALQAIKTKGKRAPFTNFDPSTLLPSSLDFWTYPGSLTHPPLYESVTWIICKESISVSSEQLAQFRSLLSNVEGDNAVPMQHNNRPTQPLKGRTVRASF

For the compound `Nc1ccc(S(N)(=O)=O)cc1Cl`, the Kinact in test [1] was determined as 1460 nM; in test [2], 378 nM.
On the same counts, the results for `Nc1ccccc1S(N)(=O)=O` are 16400 nM and 426 nM.
On the same counts, the results for `Nc1ccc(S(N)(=O)=O)cc1F` are 1360 nM and 1230 nM.
Turning to `CC(C)(C)c1ccc(S(=O)(=O)Nc2ccccc2S(N)(=O)=O)cc1`, the Kinact was determined as 24800 nM in test [1], 295 nM in test [3], 640 nM in test [2] and 14.7 µM in test [4].
Turning to `CC(C)(C)c1ccc(S(=O)(=O)Nc2cccc(S(N)(=O)=O)c2)cc1`, the values for the Kinact in test [1], in test [2] and in test [4] were 213 nM, 318 nM and 9.62 µM, respectively.
As for `CC(C)(C)c1ccc(S(=O)(=O)NCCc2ccc(S(N)(=O)=O)cc2)cc1`, the Kinact in test [1] came out at 45 nM; in test [3], 94 nM; in test [2] it was 27 nM; in test [4] it was 12 µM.
On to `Nc1ccc(S(=O)(=O)NCc2ccc(S(N)(=O)=O)cc2)cc1`, for which the values for the Kinact in test [1] and in test [2] were 87 nM and 131 nM, respectively.
On the same counts, the results for `Nc1nccc(Nc2ccc(S(N)(=O)=O)cc2)n1` are 38 nM and 84 nM.
Regarding `CC(C)(C)c1ccc(C(=O)Nc2nnc(S(N)(=O)=O)s2)cc1`, the Kinact in test [1] amounted to 28 nM; in test [2], 13 nM; in test [4], 0.541 µM.
With `NCc1ccc(S(N)(=O)=O)cc1`, the figures for the Kinact in test [1] and in test [2] were 2360 nM and 873 nM, respectively.
In the case of `NS(=O)(=O)c1ccc(CO)cc1`, the Kinact in test [1] came out at 236 nM; in test [2] it was 876 nM.
`NNc1ccc(S(N)(=O)=O)cc1`: the Kinact in test [1] was found to be 8650 nM; in test [4], 28 µM.
On to `Cc1ccc(S(N)(=O)=O)cc1`, for which the Kinact was 2470 nM in test [1], 430 nM in test [2] and 78.5 µM in test [4].
Regarding `NS(=O)(=O)c1ccc(C(=O)O)cc1`, the Kinact in test [1] was determined as 450 nM; in test [2], 1050 nM.
For the compound `Nc1ccc(S(N)(=O)=O)cc1I`, the Kinact was 1150 nM in test [1], 510 nM in test [2] and 6 µM in test [4].
In the case of `CC(=O)/N=c1/sc(S(N)(=O)=O)nn1C`, the Kinact worked out at 176 nM in test [1] and 225 nM in test [2].
Take `CC(C)(C)c1ccc(C(=O)Nc2cccc(S(N)(=O)=O)c2)cc1`: the Kinact came out at 241 nM in test [1], 316 nM in test [2] and 10.8 µM in test [4].
Take `Nc1ccc(S(=O)(=O)NCCc2ccc(S(N)(=O)=O)cc2)cc1`: the Kinact in test [1] turned out to be 71 nM; in test [2], 114 nM.
As for `CC(C)(C)c1ccc(S(=O)(=O)Nc2nnc(S(N)(=O)=O)s2)cc1`, the Kinact stood at 24 nM in test [1], 12 nM in test [2] and 0.338 µM in test [4].
For the compound `NS(=O)(=O)c1nnc(-c2ccccc2Cl)s1`, the Kinact in test [1] came to 37 nM; in test [4], 0.69 µM.
Turning to `CCN[C@H]1CN(CCCOC)S(=O)(=O)c2sc(S(N)(=O)=O)cc21`, the Kinact in test [1] was determined as 128 nM; in test [2], 210 nM.
For `CC(C)(C)c1ccc(C(=O)NCCc2ccc(S(N)(=O)=O)cc2)cc1`, the Kinact in test [1] was 44 nM; in test [3] it was 127 nM; in test [2], 62 nM; in test [4] it was 13.3 µM.
Take `CC(C)(C)c1ccc(C(=O)Nc2ccc(S(N)(=O)=O)cc2)cc1`: the Kinact amounted to 158 nM in test [1], 79 nM in test [2] and 14.2 µM in test [4].
On the same counts, the results for `CC(C)(C)c1ccc(S(=O)(=O)Nc2ccc(S(N)(=O)=O)cc2)cc1` are 150 nM, 60 nM and 13 µM.
With `Nc1ccc(S(=O)(=O)Nc2nnc(S(N)(=O)=O)s2)cc1`, the Kinact came to 64 nM in test [1] and 268 nM in test [2].
On the same counts, the results for `Nc1ccc(S(N)(=O)=O)cc1Br` are 1240 nM and 452 nM.
As for `CC(C)(C)c1ccc(C(=O)NCc2ccc(S(N)(=O)=O)cc2)cc1`, the Kinact in test [1] worked out at 101 nM; in test [3] it was 241 nM; in test [2], 539 nM; in test [4], 12.3 µM.
As for `Cn1nc(S(N)(=O)=O)sc1=N`, the Kinact was determined as 768 nM in test [1] and 549 nM in test [2].
With `CC(C)(C)c1ccc(S(=O)(=O)NCc2ccc(S(N)(=O)=O)cc2)cc1`, the Kinact in test [1] worked out at 96 nM; in test [3], 104 nM; in test [2], 31 nM; in test [4], 12.2 µM.
On to `CC(C)(C)c1ccc(C(=O)Nc2ccccc2S(N)(=O)=O)cc1`, for which the Kinact in test [1] worked out at 23500 nM; in test [2], 539 nM; in test [4], 12.3 µM.

These data come from ChEMBL document CHEMBL1148873, “Carbonic anhydrase inhibitors: the beta-carbonic anhydrase from Helicobacter pylori is a new target for sulfonamide and sulfamate inhibitors” (Bioorg Med Chem Lett, 2007).
